Experimental data: PubChem BioAssay (NCI)
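In this assay, cells in 96-well plates receive the compound at five concentrations for 48 hours. Endpoints are linearly interpolated between the surrounding concentrations. GI50 marks 50% less growth. TGI: concentration producing complete growth inhibition.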

Assays:
Assay in all cases: NCI tumour cell line growth inhibition, 48 h
[1] = tested on: HT29 colon
[2] = tested on: PC-3 prostate
[3] = tested on: RXF 393 renal
[4] = tested on: SNB-75 CNS
[5] = tested on: SF-539 CNS
[6] = tested on: MDA-MB-435
[7] = tested on: UACC-257 melanoma
[8] = tested on: CCRF-CEM leukemia
[9] = tested on: ACHN renal
[10] = tested on: SK-MEL-2 melanoma

SMILES	GI50 [1] [µM]	TGI [1] [µM]	GI50 [2] [µM]	TGI [2] [µM]	GI50 [3] [µM]	TGI [3] [µM]	GI50 [4] [µM]	TGI [4] [µM]	GI50 [5] [µM]	TGI [5] [µM]	GI50 [6] [µM]	TGI [6] [µM]	GI50 [7] [µM]	TGI [7] [µM]	GI50 [8] [µM]	TGI [8] [µM]	GI50 [9] [µM]	TGI [9] [µM]	GI50 [10] [µM]	TGI [10] [µM]
Clc1ccc(Nc2nnc(COc3ccccc3)c3ccccc23)cc1	0.429	4.25	1.3	10.1	1.01	4.98	0.498	6.65	3.12	7.58	1.01	5.31	2.54	5.82	2.8	14.2	2.35	25	0.971	5.13
CN1CCN(CCCn2c3c(sc4ncccc43)c(=O)n3nnc(-c4ccccc4)c23)CC1	1.82	3.88	1.61	4.03	4.4	8.75	9.85	23.4	1.71	3.33	1.79	3.5	5.81	10.5	1.57	4.08	1.54	3.04	21.6	39
CCN1C(=O)N(CC)C2C1NN=c1s/c(=C\c3ccc(Br)cc3)c(=O)n12 (centres undefined)	0.0757	> 100	0.168	> 100	0.147	> 100	0.0808	> 100	0.0759	5.87	0.0252	0.0706	0.849	> 100	0.246	> 33.1	0.249	> 100	4.91	> 100
NC(=O)C1CCCN1Cc1ccc2c(c1)OCO2 (centres undefined)	–	> 100	–	> 100	–	> 100	–	> 100	–	> 100	–	> 100	–	> 100	–	> 100	–	> 100	–	> 100
COc1ccc(COc2ccc(Cc3cnc(N)nc3N)cc2OC)cc1	11.7	> 25	> 22.4	> 25	8.21	> 25	8.09	> 25	> 25	> 25	> 25	> 25	8.48	> 25	> 25	> 25	> 25	> 25	> 25	> 25
[N-]=[N+]=NCCCn1c2c(c3ccccc3c1=O)C(=O)c1cc3c(cc1-2)OCO3	–	–	> 100	> 100	> 100	> 100	–	–	20.9	> 100	> 100	> 100	> 100	> 100	8.3	> 100	24.1	> 100	> 100	> 100
Cc1c(-c2c(F)cc(C(N)=O)c3[nH]c4c(c23)CC[C@H](C(C)(C)O)C4)cccc1-n1c(=O)c2cccc(F)c2n(C)c1=O	0.864	> 100	2.67	> 100	1.61	5.31	–	–	4.78	33.4	3.81	> 100	2.9	> 100	4.52	> 100	2.8	> 100	3.05	26
Cc1cc(C2CC(O)C(CO)O2)c(Br)cc1Br (centres undefined)	99.1	> 100	> 100	> 100	> 100	> 100	–	–	> 100	> 100	> 100	> 100	> 100	> 100	> 100	> 100	> 100	> 100	> 100	> 100
Cc1cc(S(=O)(=O)Nc2nc3ccccc3s2)c(SCc2ccccc2)cc1Cl	–	–	13.5	28.8	23.8	49.7	–	–	16.5	32.7	15.7	31.7	18.3	45.9	13.1	51.3	14	27.8	37.2	> 100
Nc1ncnc2c1ncn2Cc1ccc(CCl)cc1	–	–	20.8	73.1	20.3	62.2	22.3	62.6	16.7	38.4	15.4	32.9	17.9	34.8	24.3	> 100	19.4	34.8	32.6	97.5
O=C(COc1ccc(Cl)cc1Cl)NNc1ccc([N+](=O)[O-])cc1	> 100	> 100	> 100	> 100	17	39.9	15.3	33.7	99.8	> 100	> 100	> 100	99.6	> 100	–	–	51.5	> 100	22	39.7
